From patent US20050032873A1, “3-Amino chroman and 2-amino tetralin derivatives” (Wyeth, priority 2003, published 2005)
Where a name gives a salt, the structure may show the parent alone.

**Q.** With `CCCN(CCCc1c[nH]c2ccccc12)C1CCc2cccc(OC)c2C1` (stereo not shown) (as salt: hydrochloride) [Compound 50, N-[3-(1H-indol-3-yl)propyl]-8-methoxy-N-propyl-1,2,3,4-tetrahydronaphthalen-2-amine] as the compound, how does the melting point read?
**A.** 108 °C (dec.)

**Q.** Which melting point does the source give for `CCN(CCc1c[nH]c2ccc(F)cc12)C1CCc2cccc(OC)c2C1` (stereo not shown) (as salt: hydrochloride) [Compound 49, N-ethyl-N-[2-(5-fluoro-1H-indol-3-yl)ethyl]-N-(8-methoxy-1,2,3,4-tetrahydronaphthalen-2-yl)amine] here?
**A.** 114 °C (dec.)

**Q.** For `CCCCNC(=O)c1ccc(F)c2c1CC(N(CCCc1c[nH]c3ccc(F)cc13)C1CCC1)CO2` (stereo not shown) (as salt: hydrochloride) [Compound 62, N-butyl-3-{cyclobutyl[3-(5-fluoro-1H-indol-3-yl)propyl]amino}-8-fluorochromane-5-carboxamide], which melting point is on record?
**A.** 106 °C (dec.)

**Q.** Which melting point does the source give for `CCCN(CCCc1c[nH]c2c(OC)cccc12)C1COc2c(F)ccc(C(N)=O)c2C1` (stereo not shown) (as salt: hydrochloride) [Compound 100, 8-fluoro-3-[[3-(7-methoxy-1H-indol-3-yl)propyl](propyl)amino]chromane-5-carboxamide] here?
**A.** 158 to 164 °C (dec.)

**Q.** With `O=C(NC1CCC1)c1ccc(F)c2c1CC(N(CCCc1c[nH]c3ccc(F)cc13)C1CCC1)CO2` (stereo not shown) (as salt: hydrochloride) [Compound 65, N-cyclobutyl-3-{cyclobutyl[3-(5-fluoro-1H-indol-3-yl)propyl]amino}-8-fluorochromane-5-carboxamide] as the compound, how does the melting point read?
**A.** 135 °C (dec.)

**Q.** For `CCCN(CCCc1c[nH]c2ccc(F)cc12)C1COc2c(C(N)=O)ccc(F)c2C1` (stereo not shown) (as salt: hydrochloride) [Compound 120, 5-fluoro-3-[[3-(5-fluoro-1H-indol-3-yl)propyl](propyl)amino]chromane-8-carboxamide], which melting point is on record?
**A.** 123 °C (dec.)

**Q.** For `CCCN(CCCc1c[nH]c2ccc(F)cc12)[C@H]1CCc2cccc(OC)c2C1` (as salt: hydrochloride) [Compound 47a, (−)-N-[3-(5-fluoro-1H-indol-3-yl)propyl]-8-methoxy-N-propyl-1,2,3,4-tetrahydronaphthalen-2-amine], which melting point is on record?
**A.** 107 °C (dec.)

**Q.** Which melting point does the source give for `CCCN(CCCc1c[nH]c2ccc(F)cc12)C1COc2cccc(OC)c2C1` (stereo not shown) (as salt: hydrochloride) [Compound 23, [3-(5-fluoro-1H-indol-3-yl)propyl]-N-(5-methoxy-chroman-3-yl)propylamine] here?
**A.** 117 to 120 °C

**Q.** With `O=C(NCc1ccccc1)c1ccc(F)c2c1CC(N(CCCc1c[nH]c3ccc(F)cc13)C1CCC1)CO2` (stereo not shown) (as salt: hydrochloride) [Compound 69, N-benzyl-3-{cyclobutyl[3-(5-fluoro-1H-indol-3-yl)propyl]amino}-8-fluorochromane-5-carboxamide] as the compound, how does the melting point read?
**A.** 124 °C (dec.)

**Q.** For `CC(CCc1c[nH]c2ccc(F)cc12)N(CC1CC1)C1COc2c(F)ccc(C(N)=O)c2C1` (single isomer, unassigned; (-)) (as salt: hydrochloride) [Compound 15a, (−)-3-{(cyclopropylmethyl)[3-(5-fluoro-1H-indol-3-yl)-1-methylpropyl]amino}-8-fluorochromane-5-carboxamide], which melting point is on record?
**A.** 135 °C (dec.)

**Q.** Which melting point does the source give for `CCCN(CCCc1c[nH]c2c(F)cc(F)cc12)C1COc2c(C(N)=O)ccc(F)c2C1` (stereo not shown) (as salt: hydrochloride) [Compound 129, 3-[[3-(5,7-difluoro-1H-indol-3-yl)propyl](propyl)amino]-5-fluorochromane-8-carboxamide] here?
**A.** 130 °C (dec.)

**Q.** For `CCCN(CCCc1c[nH]c2ccc(OC)cc12)C1COc2c(F)ccc(C(N)=O)c2C1` (stereo not shown) (as salt: hydrochloride) [Compound 106, 8-fluoro-3-[[3-(5-methoxy-1H-indol-3-yl)propyl](propyl)amino]chromane-5-carboxamide], which melting point is on record?
**A.** 145 to 152 °C (dec.)

**Q.** For `COC(=O)c1ccc(F)c2c1CC(N(CCCc1c[nH]c3ccc(F)cc13)C1CCC1)CO2` (stereo not shown) (as salt: hydrochloride) [Compound 11, Methyl 3-{cyclobutyl[3-(5-fluoro-1H-indol-3-yl)propyl]amino}-8-fluorochromane-5-carboxylate], which melting point is on record?
**A.** 110 °C (dec.)

**Q.** With `CNC(=O)c1ccc(F)c2c1CC(N(CCCc1c[nH]c3ccc(F)cc13)CC1CC1)CO2` (stereo not shown) (as salt: hydrochloride) [Compound 91, 3-{(cyclopropylmethyl)[3-(5-fluoro-1H-indol-3-yl)propyl]amino}-8-fluoro-N-methylchromane-5-carboxamide] as the compound, how does the melting point read?
**A.** 120 °C (dec.)

**Q.** With `NC(=O)c1ccc(F)c2c1CC(NCCCc1c[nH]c3c(Cl)cccc13)CO2` (stereo not shown) (as salt: hydrochloride) [Compound 109, 3-{[3-(7-chloro-1H-indol-3-yl)propyl]amino}-8-fluorochromane-5-carboxamide] as the compound, how does the melting point read?
**A.** 222 to 224 °C

**Q.** Which melting point does the source give for `COc1cccc2c(CCN(CC3CC3)C3COc4c(F)ccc(C(N)=O)c4C3)coc12` (stereo not shown) (as salt: hydrochloride) [Compound 160, 3-{(cyclopropylmethyl)[2-(7-methoxy-1-benzofuran-3-yl)ethyl]amino}-8-fluorochromane-5-carboxamide] here?
**A.** 130 to 138 °C (dec.)

**Q.** Which melting point does the source give for `COc1cccc2c1CC(N(CCCc1c[nH]c3ccc(F)cc13)CC1CC1)CO2` (stereo not shown) (as salt: hydrochloride) [Compound 37, N-(cyclopropylmethyl)-N-[3-(5-fluoro-1H-indol-3-yl)propyl]-N-(5-methoxy-3,4-dihydro-2H-chromen-3-yl)amine] here?
**A.** 114 °C (dec.)

**Q.** Which melting point does the source give for `COc1cccc2c(CCCN(C3CCC3)C3COc4c(F)ccc(C(N)=O)c4C3)coc12` (stereo not shown) (as salt: hydrochloride) [Compound 164, 3-{cyclobutyl[3-(7-methoxy-1-benzofuran-3-yl)propyl]amino}-8-fluorochromane-5-carboxamide] here?
**A.** 131 to 140 °C (dec.)

**Q.** Which melting point does the source give for `COC(=O)c1ccc(F)c2c1CC(NCCCc1c[nH]c3ccc(F)cc13)CO2` (stereo not shown) (as salt: hydrochloride) [Compound 10, Methyl 8-fluoro-3-{[3-(5-fluoro-1H-indol-3-yl)propyl]amino}chromane-5-carboxylate] here?
**A.** 219 °C (dec.)

**Q.** For `C[C@H](CCN(C1CCC1)[C@H]1COc2c(F)ccc(C(N)=O)c2C1)c1c[nH]c2ccc(F)cc12` (as salt: hydrochloride) [Compound 152a, (3R)-3-{cyclobutyl[(3R)-3-(5-fluoro-1H-indol-3-yl)butyl]amino}-8-fluorochromane-5-carboxamide], which melting point is on record?
**A.** 168 to 174 °C (dec.)

**Q.** Which melting point does the source give for `COC(=O)c1ccc(F)c2c1CC(N(CCCCc1c[nH]c3ccc(F)cc13)C1CCC1)CO2` (stereo not shown) (as salt: hydrochloride) [Compound 58, Methyl 3-{cyclobutyl[4-(5-fluoro-1H-indol-3-yl)butyl]amino}-8-fluorochromane-5-carboxylate] here?
**A.** 115 °C (dec.)

**Q.** Which melting point does the source give for `CCCN(CCCc1c[nH]c2ccc(Cl)cc12)C1COc2c(F)ccc(C(N)=O)c2C1` (stereo not shown) (as salt: hydrochloride) [Compound 116, 3-[[3-(5-chloro-1H-indol-3-yl)propyl](propyl)amino]-8-fluorochromane-5-carboxamide] here?
**A.** 148 to 154 °C (dec.)

**Q.** For `NC(=O)c1ccc(F)c2c1C[C@@H](N(CCCc1c[nH]c3c(F)cc(F)cc13)CC1CC1)CO2` (as salt: hydrochloride) [Compound 147, (3R)-3-{(cyclopropylmethyl)[3-(5,7-difluoro-1H-indol-3-yl)propyl]amino}-8-fluorochromane-5-carboxamide], which melting point is on record?
**A.** 147 to 151 °C

**Q.** Which melting point does the source give for `CCCN(CCCCc1coc2c(OC)cccc12)[C@H]1COc2c(F)ccc(C(N)=O)c2C1` (as salt: hydrochloride) [Compound 172, (3R)-8-fluoro-3-[[4-(7-methoxy-1-benzofuran-3-yl)butyl](propyl)amino]chromane-5-carboxamide] here?
**A.** 103 to 111 °C

**Q.** With `N#Cc1ccc2[nH]cc(CCCN(CC3CC3)[C@H]3COc4c(F)ccc(C(N)=O)c4C3)c2c1` (as salt: hydrochloride) [Compound 98b, (3R)-3-[[3-(5-cyano-1H-indol-3-yl)propyl](cyclopropylmethyl)amino]-8-fluorochromane-5-carboxamide] as the compound, how does the melting point read?
**A.** 160 to 167 °C (dec.)

**Q.** For `O=C(NC1CCCCC1)c1ccc(F)c2c1CC(N(CCCc1c[nH]c3ccc(F)cc13)C1CCC1)CO2` (stereo not shown) (as salt: hydrochloride) [Compound 67, 3-{cyclobutyl[3-(5-fluoro-1H-indol-3-yl)propyl]amino}-N-cyclohexyl-8-fluorochromane-5-carboxamide], which melting point is on record?
**A.** 134 °C (dec.)

**Q.** Which melting point does the source give for `COC(=O)c1ccc(F)c2c1C[C@H](N(CCCCc1c[nH]c3ccc(F)cc13)C1CCC1)CO2` (as salt: hydrochloride) [Compound 58a, Methyl (3S)-3-{cyclobutyl[4-(5-fluoro-1H-indol-3-yl)butyl]amino}-8-fluorochromane-5-carboxylate] here?
**A.** 209 °C (dec.)

**Q.** With `COc1cccc2c1CC(N(CCCc1c[nH]c3ccccc13)CC1CC1)CO2` (stereo not shown) (as salt: hydrochloride) [Compound 43, N-(cyclopropylmethyl)-N-[3-(1H-indol-3-yl)propyl]-N-(5-methoxy-3,4-dihydro-2H-chromen-3-yl)amine] as the compound, how does the melting point read?
**A.** 107 to 110 °C

**Q.** Which melting point does the source give for `COc1cccc2c1C[C@@H](N(CCCc1c[nH]c3ccc(F)cc13)C1CCC1)CO2` (as salt: hydrochloride) [Compound 35, (3R)-N-cyclobutyl-N-[3-(5-fluoro-1H-indol-3-yl)propyl]-5-methoxy-3,4-dihydro-2H-chromen-3-amine] here?
**A.** 115 °C (dec.)

**Q.** For `NC(=O)c1ccc(F)c2c1OCC(N(CCCc1c[nH]c3ccc(F)cc13)CC1CC1)C2` (stereo not shown) (as salt: hydrochloride) [Compound 121, 3-{(cyclopropylmethyl)[3-(5-fluoro-1H-indol-3-yl)propyl]amino}-5-fluorochromane-8-carboxamide], which melting point is on record?
**A.** 123 °C (dec.)

**Q.** For `NC(=O)c1ccc(F)c2c1CC(N(CCCc1c[nH]c3c(Cl)cccc13)CC1CC1)CO2` (stereo not shown) (as salt: hydrochloride) [Compound 112, 3-[[3-(7-chloro-1H-indol-3-yl)propyl](cyclopropylmethyl)amino]-8-fluorochromane-5-carboxamide], which melting point is on record?
**A.** 147 to 155 °C (dec.)
